Source: PubChem BioAssay AID2454 (Broad Institute, 2010)

Tested on: H4 cells, SNCA 5'UTR luciferase reporter translation
Test: inhibitors of SNCA 5'UTR-driven translation, confirmation, luminescence, H4 neuroglioblastoma cells, dose confirmation (AID 2454)

COc1ccc(O)c2c(=O)c3c(OC)cc4c(c3oc12)C1C=COC1O4 (stereo unspecified)
EC50: 569 nM
